Data from PMC8536124 (International Journal of Molecular Sciences, 2021).

Columns and labels:
SF-268 = test system: SF-268; design: method as in earlier work; settings: cited from earlier work
SF-539 = test system: SF-539; design: method as in earlier work; settings: cited from earlier work
NSC lung cancer = test system: NSC lung cancer; design: method as in earlier work; settings: NSC lung cancer subpanel; read-out: GI50 MG_MID; cited from earlier work
SNB-75 = test system: SNB-75; design: method as in earlier work; settings: cited from earlier work
MALME-3M = test system: MALME-3M; design: method as in earlier work; settings: cited from earlier work
CNS cancer = test system: CNS cancer; design: method as in earlier work; settings: CNS cancer subpanel; read-out: GI50 MG_MID; cited from earlier work
PC-3 = test system: PC-3; design: method as in earlier work; settings: cited from earlier work
Melanoma = test system: Melanoma; design: method as in earlier work; settings: Melanoma subpanel; read-out: GI50 MG_MID; cited from earlier work
MDA-MB-435 = test system: MDA-MB-435; design: method as in earlier work; settings: cited from earlier work
TK-10 = test system: TK-10; design: method as in earlier work; settings: cited from earlier work
KM12 = test system: KM12; design: method as in earlier work; settings: cited from earlier work
BT-549 = test system: BT-549; design: method as in earlier work; settings: cited from earlier work
SK-OV-3 = test system: SK-OV-3; design: method as in earlier work; settings: cited from earlier work
Colon Cancer = test system: Colon Cancer; design: method as in earlier work; settings: Colon Cancer subpanel; read-out: GI50 MG_MID; cited from earlier work
LOX IMVI = test system: LOX IMVI; design: method as in earlier work; settings: cited from earlier work
HOP-62 = test system: HOP-62; design: method as in earlier work; settings: cited from earlier work
786-0 = test system: 786-0; design: method as in earlier work; settings: cited from earlier work
Ovarian cancer = test system: Ovarian cancer; design: method as in earlier work; settings: Ovarian cancer subpanel; read-out: GI50 MG_MID; cited from earlier work
Prostate cancer = test system: Prostate cancer; design: method as in earlier work; settings: Prostate cancer subpanel; read-out: GI50 MG_MID; cited from earlier work
HOP-92 = test system: HOP-92; design: method as in earlier work; settings: cited from earlier work
NCI-H226 = test system: NCI-H226; design: method as in earlier work; settings: cited from earlier work
OVCAR-4 = test system: OVCAR-4; design: method as in earlier work; settings: cited from earlier work
HS 578T = test system: HS 578T; design: method as in earlier work; settings: cited from earlier work
ACHN = test system: ACHN; design: method as in earlier work; settings: cited from earlier work
T-47D = test system: T-47D; design: method as in earlier work; settings: cited from earlier work
HCC-2998 = test system: HCC-2998; design: method as in earlier work; settings: cited from earlier work
A549/ATCC = test system: A549/ATCC; design: method as in earlier work; settings: cited from earlier work
HCT-116 = test system: HCT-116; design: method as in earlier work; settings: cited from earlier work
MDA-MB-31/ATCC = test system: MDA-MB-31/ATCC; design: method as in earlier work; settings: cited from earlier work
SN12C = test system: SN12C; design: method as in earlier work; settings: cited from earlier work
COLO 205 = test system: COLO 205; design: method as in earlier work; settings: cited from earlier work
RXF 393 = test system: RXF 393; design: method as in earlier work; settings: cited from earlier work
NCI-H522 = test system: NCI-H522; design: method as in earlier work; settings: cited from earlier work
UACC-62 = test system: UACC-62; design: method as in earlier work; settings: cited from earlier work
OVCAR-8 = test system: OVCAR-8; design: method as in earlier work; settings: cited from earlier work
SW-620 = test system: SW-620; design: method as in earlier work; settings: cited from earlier work
U251 = test system: U251; design: method as in earlier work; settings: cited from earlier work
CAKI-1 = test system: CAKI-1; design: method as in earlier work; settings: cited from earlier work
Renal Cancer = test system: Renal Cancer; design: method as in earlier work; settings: Renal cancer subpanel; read-out: GI50 MG_MID; cited from earlier work
SK-MEL-2 = test system: SK-MEL-2; design: method as in earlier work; settings: cited from earlier work
SK-MEL-5 = test system: SK-MEL-5; design: method as in earlier work; settings: cited from earlier work
NCI/ADR-RES = test system: NCI/ADR-RES; design: method as in earlier work; settings: cited from earlier work
Breast cancer = test system: Breast cancer; design: method as in earlier work; settings: Breast cancer subpanel; read-out: GI50 MG_MID; cited from earlier work
NCI-H460 = test system: NCI-H460; design: method as in earlier work; settings: cited from earlier work
A498 = test system: A498; design: method as in earlier work; settings: cited from earlier work
UO-31 = test system: UO-31; design: method as in earlier work; settings: cited from earlier work
HCT-15 = test system: HCT-15; design: method as in earlier work; settings: cited from earlier work
[1] = test system: NCI-60 cancer cell line panel; design: method as in earlier work; settings: mean graph midpoint, full panel; read-out: GI50 MG_MID60; cited from earlier work
IGROV1 = test system: IGROV1; design: method as in earlier work; settings: cited from earlier work
OVCAR-5 = test system: OVCAR-5; design: method as in earlier work; settings: cited from earlier work
DU-145 = test system: DU-145; design: method as in earlier work; settings: cited from earlier work
NCI-H23 = test system: NCI-H23; design: method as in earlier work; settings: cited from earlier work
SK-MEL-28 = test system: SK-MEL-28; design: method as in earlier work; settings: cited from earlier work
M14 = test system: M14; design: method as in earlier work; settings: cited from earlier work
MCF7 = test system: MCF7; design: method as in earlier work; settings: cited from earlier work
UACC-257 = test system: UACC-257; design: method as in earlier work; settings: cited from earlier work
OVCAR-3 = test system: OVCAR-3; design: method as in earlier work; settings: cited from earlier work
HT29 = test system: HT29; design: method as in earlier work; settings: cited from earlier work
SNB-19 = test system: SNB-19; design: method as in earlier work; settings: cited from earlier work
EKVX = test system: EKVX; design: method as in earlier work; settings: cited from earlier work
MDA-MB-468 = test system: MDA-MB-468; design: method as in earlier work; settings: cited from earlier work
SF-295 = test system: SF-295; design: method as in earlier work; settings: cited from earlier work
chorioallantoic membrane = settings: in vivo
Source text: In this assay, the irritation potential may range from 0 to 21, with 0 being non-irritant and 21 being the most irritant. […] The irritation score was established according to Luepke scale: 0–0.9 indicates non-irritant, 1–4.9 indicates weakly irritant, 5–8.9 indicates moderately irritant, while 9–21 means strongly irritant (Table 6) [88, 89].
The in vivo Hen’s Egg Chorioallantoic Membrane Test (HET-CAM) assay determines a potential irritant effect on the vascular plexus of the chorioallantoic membrane [94]. The HET-CAM method was carried out following ICCVAM recommendations published in November 2016 in Appendix G and adapted to our conditions [88, 95, 96]. Thus, a volume of 300 µL of control or test solution was applied and the modifications produced at the CAM level were monitored by means of stereomicroscopy (Discovery 8 Stereomicroscope, Zeiss), registering significant images (Axio CAM 105 color, Zeiss), before application after 5 min of contact with the samples. All images were processed using Zeiss ZEN software, Gimp 2.8, and ImageJ software.
Negative control was represented by distilled water and solvent control DMSO 0.5%, and positive control by sodium lauryl sulphate (SLS) 0.5% in distillate water. The test substances were tested in concentrations of 1 µM.
Finally, the following reactions were: hemorrhage—H (blood vessel bleeding), vascular lysis—L (disintegration of blood vessels), coagulation—C (intra- or extra-vascular protein denaturizing). A variety of analysis methods may be used to assess irritancy potential of test substances. One analysis method that has been used extensively is an irritation score (IS). The formula used to generate an IS value is:(1) IS=5×301−Sec H/300+7×300−Sec L/300+9×301−Sec C/300 where: H = hemorrhage; L = vessel lysis; C = coagulation; hemorrhage time (Sec H) = onset of hemorrhage reactions on CAM (in seconds); lysis time (Sec L) = onset of vessel lysis on CAM (in seconds); coagulation time (Sec C) = onset of coagulation formation on CAM (in seconds). Means values are obtained. […] The IS values range on a scale between 0 and 21.

O=c1[nH]cc(F)c(=O)[nH]1 [Compound 5-FU, 5-fluorouracil]
GI50 (SF-268): 1620 nM | GI50 (SF-539): 60 nM | GI50 (NSC lung cancer): 20100 nM | GI50 (SNB-75): 78700 nM | GI50 (MALME-3M): 50 nM | GI50 (CNS cancer): 17000 nM | GI50 (PC-3): 2360 nM | GI50 (Melanoma): 7070 nM | GI50 (MDA-MB-435): 70 nM | GI50 (TK-10): 1120 nM | GI50 (KM12): 210 nM | GI50 (BT-549): 10600 nM | GI50 (SK-OV-3): 21800 nM | GI50 (Colon Cancer): 260 nM | GI50 (LOX IMVI): 240 nM | GI50 (HOP-62): 390 nM | GI50 (786-0): 720 nM | GI50 (Ovarian cancer): 5770 nM | GI50 (Prostate cancer): 1360 nM | GI50 (HOP-92): 77900 nM | GI50 (NCI-H226): 54700 nM | GI50 (OVCAR-4): 4430 nM | GI50 (HS 578T): 9770 nM | GI50 (ACHN): 270 nM | GI50 (T-47D): 8120 nM | GI50 (HCC-2998): 50 nM | GI50 (A549/ATCC): 180 nM | GI50 (HCT-116): 220 nM | GI50 (MDA-MB-31/ATCC): 6600 nM | GI50 (SN12C): 490 nM | GI50 (COLO 205): 150 nM | GI50 (RXF 393): 2610 nM | GI50 (NCI-H522): 7270 nM | GI50 (UACC-62): 520 nM | GI50 (OVCAR-8): 1740 nM | GI50 (SW-620): 920 nM | GI50 (U251): 920 nM | GI50 (CAKI-1): 70 nM | GI50 (Renal Cancer): 880 nM | GI50 (SK-MEL-2): 56700 nM | GI50 (SK-MEL-5): 460 nM | GI50 (NCI/ADR-RES): 310 nM | GI50 (Breast cancer): 7030 nM | GI50 (NCI-H460): 50 nM | GI50 (A498): 350 nM | GI50 (UO-31): 1420 nM | GI50 (HCT-15): 110 nM | GI50 [1]: 6970 nM | GI50 (IGROV1): 1220 nM | GI50 (OVCAR-5): 10900 nM | GI50 (DU-145): 360 nM | GI50 (NCI-H23): 330 nM | GI50 (SK-MEL-28): 1030 nM | GI50 (M14): 980 nM | GI50 (MCF7): 70 nM | GI50 (UACC-257): 3550 nM | GI50 (OVCAR-3): 10 nM | GI50 (HT29): 170 nM | GI50 (SNB-19): 3810 nM

COc1cccc2c1C(=O)c1c(O)c3c(c(O)c1C2=O)C[C@@](O)(C(=O)CO)C[C@@H]3O[C@H]1C[C@H](N)[C@H](O)[C@H](C)O1 [DRB, doxorubicin]
GI50 (SF-268): 100 nM | GI50 (EKVX): 410 nM | GI50 (SF-539): 120 nM | GI50 (NSC lung cancer): 110 nM | GI50 (SNB-75): 70 nM | GI50 (MALME-3M): 120 nM | GI50 (CNS cancer): 80 nM | GI50 (PC-3): 320 nM | GI50 (Melanoma): 150 nM | GI50 (MDA-MB-435): 250 nM | GI50 (KM12): 270 nM | GI50 (BT-549): 230 nM | GI50 (SK-OV-3): 220 nM | GI50 (LOX IMVI): 70 nM | GI50 (HOP-62): 70 nM | GI50 (786-0): 130 nM | GI50 (Ovarian cancer): 1260 nM | GI50 (Prostate cancer): 210 nM | GI50 (HOP-92): 100 nM | GI50 (NCI-H226): 50 nM | GI50 (OVCAR-4): 370 nM | GI50 (HS 578T): 330 nM | GI50 (ACHN): 80 nM | GI50 (T-47D): 60 nM | GI50 (HCC-2998): 260 nM | GI50 (MDA-MB-468): 50 nM | GI50 (A549/ATCC): 60 nM | GI50 (SF-295): 100 nM | GI50 (HCT-116): 80 nM | GI50 (MDA-MB-31/ATCC): 510 nM | GI50 (SN12C): 70 nM | GI50 (COLO 205): 180 nM | GI50 (RXF 393): 100 nM | GI50 (NCI-H522): 30 nM | GI50 (UACC-62): 120 nM | GI50 (OVCAR-8): 100 nM | GI50 (SW-620): 90 nM | GI50 (U251): 40 nM | GI50 (CAKI-1): 950 nM | GI50 (Renal Cancer): 270 nM | GI50 (SK-MEL-2): 170 nM | GI50 (SK-MEL-5): 80 nM | GI50 (NCI/ADR-RES): 7160 nM | GI50 (Breast cancer): 190 nM | GI50 (NCI-H460): 20 nM | GI50 (A498): 100 nM | GI50 (UO-31): 490 nM | GI50 (HCT-15): 6460 nM | GI50 [1]: 380 nM | GI50 (IGROV1): 170 nM | GI50 (OVCAR-5): 410 nM | GI50 (DU-145): 110 nM | GI50 (NCI-H23): 150 nM | GI50 (SK-MEL-28): 210 nM | GI50 (M14): 180 nM | GI50 (MCF7): 30 nM | GI50 (UACC-257): 140 nM | GI50 (OVCAR-3): 390 nM | GI50 (HT29): 120 nM | GI50 (SNB-19): 40 nM

CCCCCCCCCCCCOS(=O)(=O)[O-].[Na+] [SLS 0.5%, sodium laurylsulphate]
Type of Effect (chorioallantoic membrane): Strong irritant
